Source: paper PMC7614232 (Organic & biomolecular chemistry, 2022)

Columns and labels:
[1] = molecular target: T1, GMIIb (Golgi α-mannosidase) (Drosophila melanogaster, UniProt Q9VF33); test: α-mannosidase inhibition assay with pNP-Man, GMIIb; type: biochemical; settings: for SI^a = IC50(LManII)/IC50(GMIIb): selectivity index
T1 sequence (Q9VF33 31-1249): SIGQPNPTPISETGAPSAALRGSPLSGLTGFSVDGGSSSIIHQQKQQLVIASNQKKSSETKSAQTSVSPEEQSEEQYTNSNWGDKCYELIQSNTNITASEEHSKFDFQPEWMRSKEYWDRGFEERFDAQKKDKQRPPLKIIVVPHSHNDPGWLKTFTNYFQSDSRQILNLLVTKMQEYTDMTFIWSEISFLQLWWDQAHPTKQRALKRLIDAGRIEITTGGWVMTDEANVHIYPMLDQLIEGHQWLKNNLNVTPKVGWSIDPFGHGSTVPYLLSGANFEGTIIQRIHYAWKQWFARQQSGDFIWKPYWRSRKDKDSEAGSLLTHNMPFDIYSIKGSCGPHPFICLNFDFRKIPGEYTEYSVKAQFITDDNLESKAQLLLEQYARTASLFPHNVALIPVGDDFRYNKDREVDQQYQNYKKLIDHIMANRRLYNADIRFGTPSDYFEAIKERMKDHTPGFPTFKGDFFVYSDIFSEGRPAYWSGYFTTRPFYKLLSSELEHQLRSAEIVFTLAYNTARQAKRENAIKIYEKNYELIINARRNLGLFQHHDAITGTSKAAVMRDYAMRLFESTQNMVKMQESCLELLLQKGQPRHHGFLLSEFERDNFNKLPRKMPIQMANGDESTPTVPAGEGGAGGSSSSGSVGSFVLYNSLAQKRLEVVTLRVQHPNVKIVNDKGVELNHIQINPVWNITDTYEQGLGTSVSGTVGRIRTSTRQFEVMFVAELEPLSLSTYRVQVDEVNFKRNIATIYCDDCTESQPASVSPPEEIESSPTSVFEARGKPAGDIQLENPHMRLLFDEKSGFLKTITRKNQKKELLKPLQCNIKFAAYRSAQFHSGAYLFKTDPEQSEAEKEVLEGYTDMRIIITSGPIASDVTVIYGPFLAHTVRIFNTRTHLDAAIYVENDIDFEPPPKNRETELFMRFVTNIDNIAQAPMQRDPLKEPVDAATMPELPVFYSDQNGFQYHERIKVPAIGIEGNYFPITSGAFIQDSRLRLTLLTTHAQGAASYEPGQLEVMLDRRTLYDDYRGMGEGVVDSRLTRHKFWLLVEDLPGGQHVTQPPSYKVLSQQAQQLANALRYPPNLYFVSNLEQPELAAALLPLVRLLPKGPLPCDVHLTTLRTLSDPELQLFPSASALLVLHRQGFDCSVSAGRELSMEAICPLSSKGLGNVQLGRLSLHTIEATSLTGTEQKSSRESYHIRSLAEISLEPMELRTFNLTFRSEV

[2] = molecular target: T2, AMAN-2 (Golgi α-mannosidase) (Caenorhabditis elegans, UniProt Q2PJ74); test: α-mannosidase inhibition assay with pNP-Man, AMAN-2; type: biochemical; settings: for SI^b = IC50(JBMan)/IC50(AMAN-2): selectivity index
T2 sequence (Q2PJ74 27-1145): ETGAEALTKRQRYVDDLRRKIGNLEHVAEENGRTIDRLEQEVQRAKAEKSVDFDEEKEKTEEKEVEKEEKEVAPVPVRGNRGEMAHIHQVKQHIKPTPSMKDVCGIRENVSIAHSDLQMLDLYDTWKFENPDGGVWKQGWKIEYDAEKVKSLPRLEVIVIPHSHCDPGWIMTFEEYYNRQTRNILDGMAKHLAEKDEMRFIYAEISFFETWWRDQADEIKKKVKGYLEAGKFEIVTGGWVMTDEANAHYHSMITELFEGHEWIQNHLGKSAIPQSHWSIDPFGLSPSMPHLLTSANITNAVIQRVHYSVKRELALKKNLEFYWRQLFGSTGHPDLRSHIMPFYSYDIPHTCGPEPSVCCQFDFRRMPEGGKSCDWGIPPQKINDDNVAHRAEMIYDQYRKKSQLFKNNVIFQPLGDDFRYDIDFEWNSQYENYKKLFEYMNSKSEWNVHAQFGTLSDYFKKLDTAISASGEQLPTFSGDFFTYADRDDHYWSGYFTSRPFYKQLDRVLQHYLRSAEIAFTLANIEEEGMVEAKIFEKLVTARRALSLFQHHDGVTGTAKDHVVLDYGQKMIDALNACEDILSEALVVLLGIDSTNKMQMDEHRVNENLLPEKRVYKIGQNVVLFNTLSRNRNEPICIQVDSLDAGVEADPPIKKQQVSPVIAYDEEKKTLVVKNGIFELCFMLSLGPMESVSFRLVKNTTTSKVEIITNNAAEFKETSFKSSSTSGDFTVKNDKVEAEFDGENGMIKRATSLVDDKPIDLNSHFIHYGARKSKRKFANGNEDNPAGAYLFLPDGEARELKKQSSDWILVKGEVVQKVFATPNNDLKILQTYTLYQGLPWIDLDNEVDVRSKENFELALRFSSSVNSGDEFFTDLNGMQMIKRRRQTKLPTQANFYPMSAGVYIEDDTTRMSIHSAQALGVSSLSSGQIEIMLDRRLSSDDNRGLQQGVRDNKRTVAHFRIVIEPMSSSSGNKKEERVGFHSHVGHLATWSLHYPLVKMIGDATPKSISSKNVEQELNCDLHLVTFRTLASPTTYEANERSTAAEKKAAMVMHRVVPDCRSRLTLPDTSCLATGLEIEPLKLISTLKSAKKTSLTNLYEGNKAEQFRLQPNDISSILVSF

[3] = tested on: dGMII (Golgi α-mannosidase II); settings: previous pKa calculations; cited from earlier work
[4] = in aqueous solution; cited from earlier work

Row | Structure (SMILES) | SI^a = IC50(LManII)/IC50(GMIIb) [1] | SI^b = IC50(JBMan)/IC50(AMAN-2) [2] | Ki ([1]; read-out: Ki GMIIb, Dixon plots, pNP-Man 0.5-4 mM, pH 6.0) [nM] | Ki ([2]; read-out: Ki AMAN-2, Dixon plots, pNP-Man 0.5-4 mM, pH 6.0) [nM] | pKa bound in complex with dGMII [3] | pKa [4]
1 | Cl.OC[C@H]1NC[C@@H](O)[C@H]1O [Compound 6, 1,4-Dideoxy-1,4-imino-d-lyxitol hydrochloride] | 8 | 5 | – | – | – | –
2 | OC[C@@H](O)[C@H]1NC[C@@H](O)[C@H]1O [DIM, 1,4-dideoxy-1,4-imino-D-mannitol, reference compound] | 13 | 1 | 130 | 680 | – | –
3 | O[C@H]1[C@H]2[C@H](O)CCCN2C[C@H]1O [Swainsonine, (1S,2R,8R,8aR)-trihydroxy-indolizidine] | – | – | – | – | 5.0 | 7.5
